The values below come from ChEMBL document CHEMBL3621050, “Activity and anion inhibition studies of the α-carbonic anhydrase from Thiomicrospira crunogena XCL-2 Gammaproteobacterium” (Bioorg Med Chem Lett, 2015).

Broadly, the Ki is a measure of affinity in units of concentration, obtained from inhibition or displacement.

Experiment [1] deals with T1, Carbonic anhydrase, alpha family (Thiomicrospira crunogena, UniProt Q31FD6).
T1 sequence (Q31FD6 whole entry): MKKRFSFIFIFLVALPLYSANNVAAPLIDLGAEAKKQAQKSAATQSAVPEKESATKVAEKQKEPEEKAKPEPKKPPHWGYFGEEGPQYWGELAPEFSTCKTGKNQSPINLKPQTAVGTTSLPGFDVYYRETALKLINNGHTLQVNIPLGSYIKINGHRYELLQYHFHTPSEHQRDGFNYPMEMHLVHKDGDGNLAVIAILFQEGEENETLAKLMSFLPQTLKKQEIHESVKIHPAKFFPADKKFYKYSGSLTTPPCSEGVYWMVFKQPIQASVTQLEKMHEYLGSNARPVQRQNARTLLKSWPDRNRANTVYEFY
The experiment in a line: Inhibition of Thiomicrospira crunogena XCL-2 alpha-carbonic anhydrase expressed in Escherichia coli BL21 (DE3) cells by [18O]-exchange mass spectroscopy.

Experiment [2] is described as follows: Inhibition of Sulfurihydrogenibium yellowstonense YO3AOP1 alpha-carbonic anhydrase by [18O]-exchange mass spectroscopy.
Experiment [3] is described as follows: Inhibition of Vibrio cholerae alpha-carbonic anhydrase by [18O]-exchange mass spectroscopy.
A short description of experiment [4]: Inhibition of Sulfurihydrogenibium azorense alpha-carbonic anhydrase by [18O]-exchange mass spectroscopy.

SMILES strings stand for the structures.

In the case of `Br` [BROMIDE], the Ki in experiment [1] turned out to be 242000 µM; in experiment [2], 49000 µM; in experiment [3], 28000 µM; in experiment [4], 940 µM.

On to `Cl` [HYDROCHLORIC ACID], for which the inhibition constant (Ki) in experiment [1] came out at 361000 µM; in experiment [2], 8300 µM; in experiment [3], 930 µM; in experiment [4], 850 µM.

For the compound `S` [HYDROGEN SULFIDE], the Ki in experiment [1] stood at 1.1 µM; in experiment [2], 580 µM; in experiment [3], 74 µM; in experiment [4] it was 380 µM.

As for `I` [IODIDE], the Ki in experiment [1] was 53000 µM; in experiment [2] it was 860 µM; in experiment [3], 9730 µM; in experiment [4], 870 µM.
